Several values for one entry are separate records, joined by “and”; a condition that tells them apart may be missing. Equal values may be shown once. Where no end group is shown, it is not given here.
B1: S100A7: "defensin-like" innate peptide constitutively secreted by cervical/vaginal mucosa (Abnova) (protein, UniProt P31151 2-101, looked up)
Protein S100-A7: SNTQAERSIIGMIDMFHKYTRRDDKIEKPSLLTMMKENFPNFLSACDKKGTNYLADVFEKKDKNEDKKIDFSEFLSLLGDIATDYHKQSHGAAPCSGGSQ

How the values were obtained:
E-cadherin (CDH1) = experiment: Reactivation of hypermethylated CDH1 gene (Western blot); format: cell-based, human; conditions: 5 µM
Experimental: Immortalized keratinocytes (1.5 × 10^5 cells per well of a six-well plate) were transfected with ON-TARGETplus SMARTpool siRNAs targeting p65, β-catenin or c-Myc (Dharmacon, Lafayette, CO, USA) using Oligofectamine Transfection Reagent (Invitrogen). Oligos targeting the firefly luciferase gene (siGL2) were used as control. For each experiment, siRNA (40 nM) and 6 µl of Oligofectamine were diluted in 1 ml of Optimem (Invitrogen). The cells were incubated with the mixture for 4 h at 37 °C. Twenty-four hours after transfection, cells were either harvested or stimulated with LPS (2 µg/ml) or TNFα (20 ng/ml) and experiments were performed. For the chemical inhibition of NF-kB or c-Myc, BAY 11-7082 (5 µM, Sigma Aldrich) or 10058-F4 (40 µM, Selleckchem, Houston, TX, USA) was added to cell cultures before RNA expression analyses. […]
After extraction in 1% SDS buffer (total extraction) containing protease and phosphatase inhibitors (Roche) and quantification (BCA protein assay kit; Pierce, Rockford, IL, USA), twenty micrograms of proteins were separated on 10% SDS-PAGE and transferred to PVDF membranes (Roche). […] The protein bands were detected using an enhanced chemiluminescence system (Westar ECL-Sun, Cyanagen, Bologna, Italy) and finally quantified by densitometry using ImageJ software. […]

L. jensenii [1] = experiment: ATP measurement in bacteria (BacTiter-Glo); format: cell-based, Lactobacillus jensenii; conditions: 6 × 10^7 CFU/ml, peptide 5 µg, 10 mM SPB, 6 h, 37 °C; luminescence; n = 5; statistical significance not reached in all conditions
Experimental: (§1) ATP level in bacteria was determined using the BacTiter-Glo Microbial Cell Viability Assay (Promega) according to manufacturer’s recommendations. For each bacterial species, 6 ×10^7 CFU/ml were mixed with elafin or S100A7 (5 µg) in 10 mM SPB and incubated 6 h at 37 °C. One hundred µl of bacterial-peptide solution were then mixed with an equal volume of BacTiter-Glo reagent and incubated for 5 min at room temperature. Luminescence was measured using a Centro LB960 microplate luminometer (Berthold Technologies, Bad Wildbad, Germany).

L. iners [2] = experiment: Internalization of fluorescent-labeled peptides in bacteria (flow cytometry); format: cell-based, Lactobacillus iners; conditions: Atto 488-labeled peptide 5 µg/ml, 5 × 10^4 CFU/ml, 10 mM SPB, 1 h30, 37 °C, trypan blue, n = 3
Experimental: (§2) To determine the incorporation of selected peptides (or their hydrolyzed products) within the cytoplasm of several bacterial species, free amine groups (lysine residues and N-terminus) were first conjugated with Atto 488 dye according to manufacturer’s recommendations (Atto 488 protein labeling kit, Sigma Aldrich). A total 5 × 10^4 colony-forming unit (CFU)/ml were then mixed with fluorescent labeled peptides (5 µg/ml) in 10 mM sodium phosphate buffer (final volume 100 µl) and incubated for 1 h30 at 37 °C before being analyzed by flow cytometry. Where indicated, trypan blue was added before the analysis in order to exclusively consider cytoplasmic fluorescence.

L. crispatus [3] = experiment: as above; format: cell-based, Lactobacillus crispatus; conditions: Atto 488-labeled peptide 5 µg/ml, 5 × 10^4 CFU/ml, 10 mM SPB, 1 h30, 37 °C, trypan blue, n = 3
Experimental: as §2

L. iners [4] = experiment: ATP measurement in bacteria (BacTiter-Glo); format: cell-based, Lactobacillus iners; conditions: 6 × 10^7 CFU/ml, peptide 5 µg, 10 mM SPB, 6 h, 37 °C; luminescence; n = 5; statistical significance not reached in all conditions
Experimental: as §1

L. crispatus [5] = experiment: ATP measurement in bacteria (BacTiter-Glo); format: cell-based, Lactobacillus crispatus; conditions: 6 × 10^7 CFU/ml, peptide 5 µg, 10 mM SPB, 6 h, 37 °C; luminescence; n = 5; statistical significance not reached in all conditions
Experimental: as §1

L. jensenii [6] = experiment: Internalization of fluorescent-labeled peptides in bacteria (flow cytometry); format: cell-based, Lactobacillus jensenii; conditions: Atto 488-labeled peptide 5 µg/ml, 5 × 10^4 CFU/ml, 10 mM SPB, 1 h30, 37 °C, trypan blue, n = 3
Experimental: as §2

[7] = tested on: Lactobacillus iners CIP 105923; experiment: Antimicrobial assay (surviving colonies, CFU count); format: cell-based; conditions: for Bacterial survival (surviving colonies): Fig 5E, L. iners, individual replicates; for Bacterial survival (surviving colonies) / positive effect on survival in acidic conditions: pH 5.8; for positive effect on survival in potassium phosphate buffer: KPB pH 7.4, 10 mM; for positive effect on survival in potassium phosphate buffer / positive effect on survival in acidic conditions / effect on bacterial growth/survival (percentage of surviving colonies): 6 h; for positive effect on survival in potassium phosphate buffer / positive effect on survival in acidic conditions: n = 4; for effect on bacterial growth/survival (percentage of surviving colonies): peptide 1–10 µg/ml, 5 × 10^4 CFU/ml, 10 mM sodium phosphate buffer, 37 °C, plated on Columbia Blood agar, n = 3; for antimicrobial/protective activity in reducing environment: peptides pre-incubated with 2 mM DTT 30 min 37 °C, 6 h with bacteria, n = 5; for incubation time at which a significant increased percentage of surviving colonies was detected: starvation assay (no nutrients), n = 6
Experimental: (§3) Bacterial strains Lactobacillus crispatus DSM 20356, Lactobacillus iners CIP 105923 and Garnerella vaginalis CCUG 43336 were kindly provided by the Department of Clinical Microbiology at University Hospital Center of Liege. Lactobacillus jensenii LMG 6414 was obtained from BCCM/LMG Bacteria Collection (University of Gent, Belgium). Log-phase bacteria were grown on Columbia agar with 5% sheep blood (Becton Dickinson, Franklin Lakes, NJ, USA) at 37 °C in a humidified CO2 atmosphere (Lactobacilli) or in anaerobic jars (G. vaginalis). To analyze the antimicrobial effect of innate peptides expressed by vaginal/cervical mucosa, 5 × 10^4 colony-forming unit (CFU)/ml were mixed with different peptides (concentration range: 1–10 µg/ml) in 10 mM sodium phosphate buffer (SPB) (final volume 100 µl) and incubated for 45 min to 9 h at 37 °C. Where indicated, the peptides were incubated with 2 mM dithiothreitol (DTT) (Invitrogen, Carlsbad, CA, USA) for 30 min at 37 °C before adding the bacteria. In indicated experiments, incubation was carried out in potassium phosphate buffer (KPB) (pH: 7.4, 10 mM). The following peptides were tested: HβD1 (PeptaNova, Sandhausen, Germany), HβD2 (PeptaNova), HβD3 (PeptaNova), HβD4 (PeptaNova), HD-5 (PeptaNova), HD-6 (PeptaNova), elafin (PeptaNova), S100A7 (Abnova, Taipei City, Taiwan) and SLPI (R&D Systems, Minneapolis, MI, USA). Bacterial suspensions were then plated on Columbia Blood agar plates for 24–48 h to determine CFU. High-resolution images for each condition were taken. Colony detection and counts were finally performed using ImageJ software (NIH, Bethesda, MD, USA) and verified by manual counting.

[8] = tested on: Lactobacillus jensenii LMG 6414; experiment: as above; format: cell-based; conditions: for Bacterial survival (surviving colonies): Fig 5E, L. jensenii, individual replicates; for Bacterial survival (surviving colonies) / positive effect on survival in acidic conditions: pH 5.8; for positive effect on survival in potassium phosphate buffer: KPB pH 7.4, 10 mM; for positive effect on survival in potassium phosphate buffer / positive effect on survival in acidic conditions / effect on bacterial growth/survival (percentage of surviving colonies): 6 h; for positive effect on survival in potassium phosphate buffer / positive effect on survival in acidic conditions / antimicrobial/protective activity in reducing environment: n = 4; for effect on bacterial growth/survival (percentage of surviving colonies): peptide 1–10 µg/ml, 5 × 10^4 CFU/ml, 10 mM sodium phosphate buffer, 37 °C, plated on Columbia Blood agar, n = 3; for antimicrobial/protective activity in reducing environment: peptides pre-incubated with 2 mM DTT 30 min 37 °C, 6 h with bacteria; for incubation time at which a significant increased percentage of surviving colonies was detected: starvation assay (no nutrients), 45 min to 9 h, n = 8
Experimental: as §3

[9] = tested on: Lactobacillus crispatus DSM 20356; experiment: as above; format: cell-based; conditions: for Bacterial survival (surviving colonies): Fig 5E, L. crispatus, individual replicates; for Bacterial survival (surviving colonies) / positive effect on survival in acidic conditions: pH 5.8; for positive effect on survival in potassium phosphate buffer: KPB pH 7.4, 10 mM; for positive effect on survival in potassium phosphate buffer / positive effect on survival in acidic conditions / effect on bacterial growth/survival (percentage of surviving colonies): 6 h; for positive effect on survival in potassium phosphate buffer / positive effect on survival in acidic conditions: n = 4; for effect on bacterial growth/survival (percentage of surviving colonies): peptide 1–10 µg/ml, 5 × 10^4 CFU/ml, 10 mM sodium phosphate buffer, 37 °C, plated on Columbia Blood agar, n = 3; for antimicrobial/protective activity in reducing environment: peptides pre-incubated with 2 mM DTT 30 min 37 °C, 6 h with bacteria, n = 6; for incubation time at which a significant increased percentage of surviving colonies was detected: starvation assay (no nutrients), 45 min to 9 h, n = 8
Experimental: as §3

Molecule	ATP production (L. jensenii [1])	internalization of fluorescent-labeled peptide (or hydrolyzed products) within the cytoplasm of bacteria (L. iners [2])	internalization of fluorescent-labeled peptide (or hydrolyzed products) within the cytoplasm of bacteria (L. crispatus [3])	ATP production (L. iners [4])	ATP production (L. crispatus [5])	internalization of fluorescent-labeled peptide (or hydrolyzed products) within the cytoplasm of bacteria (L. jensenii [6])	Bacterial survival (surviving colonies) [7]	positive effect on survival in potassium phosphate buffer [7]	positive effect on survival in acidic conditions [7]	effect on bacterial growth/survival (percentage of surviving colonies) [7]	antimicrobial/protective activity in reducing environment [7]	incubation time at which a significant increased percentage of surviving colonies was detected [7]	Bacterial survival (surviving colonies) [8]	positive effect on survival in potassium phosphate buffer [8]	positive effect on survival in acidic conditions [8]	effect on bacterial growth/survival (percentage of surviving colonies) [8]	antimicrobial/protective activity in reducing environment [8]	incubation time at which a significant increased percentage of surviving colonies was detected [8]	Bacterial survival (surviving colonies) [9]	positive effect on survival in potassium phosphate buffer [9]	also measured
Nc1ncn([C@H]2C[C@H](O)[C@@H](CO)O2)c(=O)n1 [5-aza-deoxycytidine]																					CDH1 (E-cadherin) expression, Western blot (E-cadherin (CDH1)): reactivation of silenced CDH1 gene
elafin: "defensin-like" innate peptide constitutively secreted by cervical/vaginal mucosa (PeptaNova) (AQEPVKGPVSTKPGSCPIILIRCAMLNPPNRCLKDTDCPGIKKCCEGSCGMACFVPQ; not fully specified; ends and bridges not checked; UniProt P19957 61-117, looked up)	increase of ATP production	internalization	internalization	increase of ATP production	increase of ATP production	internalization	148.35 and 185.56 and 157.03 and 142.84	did not modify the positive effect	did not modify the positive effect	do not display any antimicrobial activities	significant protective effect	only detected after 3 or 6 h	223.81 and 226.19 and 261.90 and 150.02	did not modify the positive effect	did not modify the positive effect	do not display any antimicrobial activities	significant protective effect	only detected after 3 or 6 h	124.66 and 146.1 and 157.25 and 154.15	did not modify the positive effect	positive effect on survival in acidic conditions [9]: did not modify the positive effect; effect on bacterial growth/survival (percentage of surviving colonies) [9]: do not display any antimicrobial activities; antimicrobial/protective activity in reducing environment [9]: significant protective effect; incubation time at which a significant increased percentage of surviving colonies was detected [9]: only detected after 3 or 6 h
B1	increase of ATP production	internalization	internalization	increase of ATP production	increase of ATP production	internalization	138.53 and 246.67 and 123.50 and 159.47	did not modify the positive effect	did not modify the positive effect	do not display any antimicrobial activities	significant protective effect	only detected after 3 or 6 h	419.05 and 164.29 and 304.76 and 269.05	did not modify the positive effect	did not modify the positive effect	do not display any antimicrobial activities	significant protective effect	only detected after 3 or 6 h	127.74 and 112.92 and 139.54 and 168.69	did not modify the positive effect	positive effect on survival in acidic conditions [9]: did not modify the positive effect; effect on bacterial growth/survival (percentage of surviving colonies) [9]: do not display any antimicrobial activities; antimicrobial/protective activity in reducing environment [9]: significant protective effect; incubation time at which a significant increased percentage of surviving colonies was detected [9]: only detected after 3 or 6 h

Source: paper PMC8885657, “HPV infection alters vaginal microbiome through down-regulating host mucosal innate peptides used by Lactobacilli as amino acid sources” (Nature Communications, 2022)
